The values below come from ChEMBL document CHEMBL3751701, “Class I and Class II Lanthipeptides Produced by Bacillus spp” (2015).

One assay concerns Lactococcus lactis. As to the kind of experiment: Antibacterial activity against Lactococcus lactis MG1614 by agar diffusion assay. Format: functional. A general note: Agar diffusion results depend on both activity and mobility in agar.
Assay [1] has as its system Micrococcus luteus. Description: Antibacterial activity against Micrococcus luteus […] 8166 by agar diffusion assay. The assay is classed as functional.
Another assay concerns Bacillus cereus. As to the kind of experiment: Antibacterial activity against Bacillus cereus UW85 after 120 mins by agar well diffusion method. Format: functional. The settings on record: UW85, 2 h.
The subject of a further assay is Bacillus firmus. Description: Antibacterial activity against Bacillus firmus BCRC 11944 after 120 mins by agar well diffusion method. Format: functional. The settings on record: Cytobacillus firmus, BCRC 11944, 2 h.
Assay [2] relates to Bacillus subtilis. As to the kind of experiment: Antibacterial activity against Bacillus subtilis 168 after 120 mins by agar well diffusion method. Format: functional. The settings on record: subsp. subtilis str. 168, 2 h.
In assay [3] the test system is Bacillus subtilis. Description: Antibacterial activity against Bacillus subtilis BSn5 after 120 mins by agar well diffusion method. The assay is classed as functional. The settings on record: BSn5, 2 h.
Assay [4] relates to Bacillus thuringiensis. As to the kind of experiment: Antibacterial activity against Bacillus thuringiensis BMB171 after 120 mins by agar well diffusion method. The assay is classed as functional. The settings on record: BMB171, 2 h.
Assay [5] concerns Bacillus thuringiensis. Description: Antibacterial activity against Bacillus thuringiensis YBT-1518 after 120 mins by agar well diffusion method. The settings on record: YBT-1518, 2 h. The assay is classed as functional.
A further assay relates to Bacillus pumilus. Description: Antibacterial activity against Bacillus pumilus SCG I after 120 mins by agar well diffusion method. Format: functional. The settings on record: 2 h.
Assay [6] relates to Enterococcus faecalis. As to the kind of experiment: Antibacterial activity against Enterococcus faecalis Bom3 after 120 mins by agar well diffusion method. Format: functional. The settings on record: Bom3, 2 h.
The test system of another assay is Microbacterium. As to the kind of experiment: Antibacterial activity against Microbacterium Pri2 after 120 mins by agar well diffusion method. The settings on record: Pri2, 2 h. The assay is classed as functional.
The next assay relates to Staphylococcus sciuri. As to the kind of experiment: Antibacterial activity against Staphylococcus sciuri Bom1 after 120 mins by agar well diffusion method. The settings on record: Bom1, 2 h.
Assay [7] deals with Enterococcus faecium. Description: Antibacterial activity against Enterococcus faecium ATCC 19579 after 18 to 20 hrs by agar well diffusion method. The assay is classed as functional.
For assay [8], the system named is Enterococcus faecium. As to the kind of experiment: Antibacterial activity against vancomycin-resistant Enterococcus faecium 7131121 after 18 to 20 hrs by agar well diffusion method. Format: functional.
In assay [9] the test system is Enterococcus faecalis. As to the kind of experiment: Antibacterial activity against Enterococcus faecalis ATCC 29212 after 18 to 20 hrs by agar well diffusion method. Format: functional.
Assay [10] concerns Micrococcus luteus. Description: Antibacterial activity against Micrococcus luteus ATCC 4698 after 18 to 20 hrs by agar well diffusion method. The settings on record: NCTC 2665. Format: functional.
For assay [11], the system named is Staphylococcus epidermidis. As to the kind of experiment: Antibacterial activity against Staphylococcus epidermidis NCTC 11047 after 18 to 20 hrs by agar well diffusion method. Format: functional.
Assay [12] has as its system Staphylococcus aureus. Description: Antibacterial activity against Staphylococcus aureus SH1000 after 18 to 20 hrs by agar well diffusion method. Format: functional.
For assay [13], the system named is Staphylococcus aureus. As to the kind of experiment: Antibacterial activity against methicillin-resistant Staphylococcus aureus R33 after 18 to 20 hrs by agar well diffusion method. Format: functional.
For assay [14], the system named is Staphylococcus aureus. Description: Antibacterial activity against Staphylococcus aureus SG511 after 18 hrs by broth microdilution method. The settings on record: SG511, 18 h. The assay is classed as functional.
For assay [15], the system named is Staphylococcus aureus. As to the kind of experiment: Antibacterial activity against Staphylococcus aureus 137/93A after 18 hrs by broth microdilution method. The assay is classed as functional. For orientation: Broth dilution looks for growth in wells or tubes with falling amounts of substance.
The test system of assay [16] is Staphylococcus aureus. Description: Antibacterial activity against Staphylococcus aureus 137/93G after 18 hrs by broth microdilution method. Format: functional.
Another assay has as its system Streptococcus pneumoniae. As to the kind of experiment: Antibacterial activity against Streptococcus pneumoniae BAA-255 after 18 to 20 hrs by agar well diffusion method. The assay is classed as functional.
For assay [17], the system named is Staphylococcus aureus. Description: Ratio of MIC for Staphylococcus aureus 137/93A to MIC for Staphylococcus aureus SG511. Format: functional.
Assay [18] in a line: Ratio of MIC for Enterococcus faecalis ATCC 29212 to MIC for Enterococcus faecium ATCC 19579. The assay is classed as functional.

In brackets after ≈: the same amount, converted by molar mass.

For the compound `C=C(NC(=O)[C@@H](NC(=O)[C@H](CCCCN)NC(=O)[C@H]1CSC(C)C2NC(=O)[C@H](CC(C)C)NC(=O)C(NC(=O)[C@@H](CCC(N)=O)NC(=O)[C@@H](CC(C)C)NC(=O)[C@@H](Cc3ccccc3)NC(=O)[C@H]3CSC(C)C(NC(=O)[C@@H](NC(=O)[C@H]4CSC(C)C(NC(=O)[C@H]5CSC[C@@H](NC(=O)[C@@H](CCCCN)NC(=O)[C@H](Cc6c[nH]c7ccccc67)NC(=O)CCC(=O)O)C(=O)N[C@H](CCC(=O)O)C(=O)NC(=C)C(=O)N[C@H](CC(C)C)C(=O)N5)C(=O)N5CCC[C@H]5C(=O)NCC(=O)N4)C(C)C)C(=O)NCC(=O)N[C@H](C)C(=O)N[C@H](CC(C)C)C(=O)N[C@H](CCC(N)=O)C(=O)N/C(=C\C)C(=O)N3)C(C)SC[C@H](NC2=O)C(=O)N[C@@H](CC(N)=O)C(=O)N1)[C@@H](C)CC)C(=O)N[C@H](CCCCN)C(=O)O` (stereo not given in full), the MIC against Lactococcus lactis stood at 5.55 µM (≈ 19 µg/mL); with Micrococcus luteus [1], 0.0994 µM (≈ 0.34 µg/mL).
Regarding `C=C1NC(=O)[C@@H]2CSC(C)C(NC(=O)[C@@H]3CSC(C)C4NC(=O)CNC(=O)C(NC(=O)[C@H](CCCCN)NC(=O)[C@@H]5CSC[C@H](NC(=O)[C@@H](NC(=O)[C@H](CCCCN)NC(=O)[C@@H](NC(=O)[C@@H](NC(=O)/C(=C/C)NC(=O)/C(=C\C)NC(=O)[C@H](Cc6c[nH]c7ccccc67)NC(=O)C(=O)CC)[C@@H](C)CC)C(C)C)C(C)C)C(=O)N[C@@H](CCCCN)C(=O)N[C@@H](C)C(=O)N[C@@H](C(C)C)C(=O)N5)C(C)SC[C@H](NC4=O)C(=O)N[C@@H]([C@@H](C)CC)C(=O)N3)C(=O)N/C(=C\C)C(=O)N[C@@H](CSC[C@@H](C(=O)N[C@@H](CCCCN)C(=O)O)NC(=O)[C@H](CC(N)=O)NC1=O)C(=O)N2` (stereo not given in full), the MIC in the assay on Bacillus cereus amounted to 7.8 µM (≈ 21.7 µg/mL); in the assay with Bacillus firmus, 0.326 µM (≈ 0.909 µg/mL); against Bacillus subtilis [2], 5.2 µM (≈ 14.5 µg/mL); in the assay with Bacillus subtilis [3] it was 5.2 µM (≈ 14.5 µg/mL); with Bacillus thuringiensis [4], 1.3 µM (≈ 3.62 µg/mL); in the assay on Bacillus thuringiensis [5], 1.3 µM (≈ 3.62 µg/mL). Moreover, the MIC against Bacillus pumilus was determined as 0.65 µM (≈ 1.81 µg/mL); in the assay with Enterococcus faecalis [6], 2.6 µM (≈ 7.25 µg/mL); with Microbacterium it was 5.2 µM (≈ 14.5 µg/mL); against Staphylococcus sciuri it was 1.95 µM (≈ 5.44 µg/mL).
As for `C=C1NC(=O)C2NC(=O)[C@H](CC(C)C)NC(=O)C(NC(=O)[C@@H]3CSC(C)[C@H](NC(=O)[C@H](Cc4ccccc4)NC(=O)C4NC(=O)[C@@H](N)CSC4C)C(=O)N[C@@H](CC(C)C)C(=O)N4CCC[C@H]4C(=O)NCC(=O)NCC(=O)NCC(=O)NCC(=O)N[C@@H](C(C)C)C(=O)N3)C(C)SC[C@@H](NC(=O)[C@H](CCC(=O)O)NC1=O)C(=O)N[C@@H]([C@H](C)CC)C(=O)N/C=C/SC2C` (stereo not given in full), the minimal inhibitory concentration (MIC) in the assay with Enterococcus faecium [7] was 17.5 µM (≈ 32 µg/mL); against Enterococcus faecium [8], 35.1 µM (≈ 64 µg/mL); in the assay on Enterococcus faecalis [9], 35.1 µM (≈ 64 µg/mL); in the assay on Micrococcus luteus [10], 0.657 µM (≈ 1.2 µg/mL); in assay [11], 8.94 µM (≈ 16.3 µg/mL); in the assay on Staphylococcus aureus [12], 17.5 µM (≈ 32 µg/mL). The minimum inhibitory concentration (MIC) stood at 17.5 µM (≈ 32 µg/mL) in the assay with Staphylococcus aureus [13]; 0.548 µM (≈ 1 µg/mL) against Staphylococcus aureus [14]; 19.2 µM (≈ 35 µg/mL) in the assay with Staphylococcus aureus [15]; 16.4 µM (≈ 30 µg/mL) against Staphylococcus aureus [16]; 1.1 µM (≈ 2 µg/mL) against Streptococcus pneumoniae. Besides, the values for the Ratio (with Staphylococcus aureus [17]; in assay [18]) were 35 and 2, respectively.

The MIC is the lowest concentration found to suppress growth. Low readings indicate a more susceptible organism, high ones a less susceptible organism.
